Data: patent US20120009164A1, “Increasing Probiotic Growth Rate and Activity Using Prebiotic Composition” (MASTER SUPPLEMENTS, INC., priority 2010, published 2012)

Assays:
[1] = tested on: Lactobacillus rhamnosus Lr-32 (LR-44); assay: Growth (turbidity) and lactic acid producing activity in MRS broth, L. rhamnosus Lr-32; assay type: cell-based; details: for Lactic Acid % / NTU (Turbidity) / pH: additive 0.1% in MRS (polysorbate 80 control: 1.0 g per liter)
Procedure: (§1) Prebiotic formulations are often probiotic strain dependent. Some Lactobacillus strains, for example, respond best to a form of lecithin derived from sunflowers (Sunflower Lecithin) while others show no preference to lecithin type and respond equally well to soy lecithin. Other strains show a synergistic response when lecithin is used together with oleic acid. […] Each flask was tempered to 37° C. and aseptically inoculated with 0.14 gm of the individual probiotic strains (in Examples 5 to 10 below) to be tested. At specified time intervals, a 30 ml sample from each flask was aseptically transferred into a HACH […] Turbidimeter sample cell. The turbidity of each sample was read and the results were reported in NTU's. The same 30 ml sample used for the turbidity reading was transferred into a 250 ml glass beaker, and the pH was recorded. The sample was titrated using 0.1N NaOH to an endpoint of pH 6.8, and the quantity of NaOH used was recorded. The % Lactic Acid was calculated using the following formula: % Lactic Acid=((mls of 0.1N NaOH)×(0.1N)×(90 gm/mole)×(1 L/1000 ml))×100 mls of sample % Lactic Acid=(mls of 0.1N NaOH)×(0.9) (Results reported at 12 hours and 23 hours like: 12/23 in Table IV below)

[2] = tested on: Lactobacillus salivarius Ls-33 (LS-30); assay: Growth (turbidity) and lactic acid producing activity in MRS broth, L. salivarius Ls-33; assay type: cell-based; details: for Lactic Acid % / NTU (Turbidity) / pH: additive 0.1% in MRS (polysorbate 80 control: 1.0 g per liter)
Procedure: as §1, with “V” for “IV”

[3] = tested on: Lactobacillus paracasei Lpc-37 (F-19); assay: Growth (turbidity) and lactic acid producing activity in MRS broth, L. paracasei Lpc-37; assay type: cell-based; details: for Lactic Acid % / NTU (Turbidity) / pH: additive 0.1% in MRS (polysorbate 80 control: 1.0 g per liter)
Procedure: as §1, with “III” for “IV”

[4] = tested on: L. acidophilus NCFM (LA-1); assay: Growth (turbidity) and lactic acid producing activity in MRS broth, L. acidophilus NCFM; assay type: cell-based, Lactobacillus acidophilus
Procedure: Prebiotic formulations are often probiotic strain dependent. […] At specified time intervals, a 30 ml sample from each flask was aseptically transferred into a HACH […] Turbidimeter sample cell. The turbidity of each sample was read and the results were reported in NTU's. The same 30 ml sample used for the turbidity reading was transferred into a 250 ml glass beaker, and the pH was recorded. The sample was titrated using 0.1N NaOH to an endpoint of pH 6.8, and the quantity of NaOH used was recorded. The % Lactic Acid was calculated using the following formula: % Lactic Acid=((mls of 0.1N NaOH)×(0.1N)×(90 gm/mole)×(1 L/1000 ml))×100 mls of sample % Lactic Acid=(mls of 0.1N NaOH)×(0.9) (Results reported at 12 hours and 23 hours like: 12/23 in Table I below)

[5] = tested on: Bifidobacterium lactis Bl-04 (BL-34); assay: Growth (turbidity) and lactic acid producing activity in MRS broth, B. lactis Bl-04; assay type: cell-based; details: additive 0.1% in MRS (polysorbate 80 control: 1.0 g per liter)
Procedure: as §1, with “II” for “IV”

[6] = tested on: THERALAC® Lot # 32310A probiotic strains; assay: Growth of the commercial probiotic Theralac in MRS broth (Example 10); assay type: cell-based, Lactobacillus and Bifidobacterium strains; details: for Lactic Acid % / pH / NTU (Turbidity): additive 0.1% in MRS (polysorbate 80 control: 1.0 g per liter); for NTU (Turbidity): inoculated at 0.1% with THERALAC
Procedure: MRS broth was prepared with (for controls) and without (for tests) polysorbate 80 and filled into 1 liter screw cap flasks at 500 ml each and autoclaved at 121° C. for 30 minutes. Various lecithin and/or oleic acid additives, or nothing (negative control), was added to the tests flasks prior to autoclaving. The flasks were then tempered to 37° C. in a water bath and inoculated at 0.1% with […]® Lot # 32310A, a commercial probiotic product (Master Supplements, Inc., Victoria, Minn.). Capsules of […]® were opened and the contents mixed aseptically to serve as the inoculum source. At an inoculation rate of 0.1%, approximately 80 million CFU was added per ml of MRS media. […]® contains (formulation strength) the following probiotic strains at the approximate CFU values listed per gram: Lactobacillus acidophilus NCFM (LA-1): 30 billion CFU Bifidobacterium lactis Bl-04 (BL-34): 30 billion CFU Lactobacillus paracasei Lpc-37 (F-19): 14 billion CFU Lactobacillus rhamnosus Lr-32 (LR-44): 6 billion CFU Bifidobacterium lactis Bi-07: 8 billion CFU Turbidity, pH and titrations (made with 0.1 N NaOH and reported as % lactic acid) were made at various times up to 23 hours. The results are presented below in Table VI for the 12 and 23-hour analyses.

[7] = additive 0.1% in MRS (polysorbate 80 control: 1.0 g per liter), 37° C., 12 hours
[8] = additive 0.1% in MRS (polysorbate 80 control: 1.0 g per liter), 37° C., 23 hours
[9] = additive 0.1% in MRS (polysorbate 80 control: 1.0 g per liter), 12 hours
[10] = additive 0.1% in MRS (polysorbate 80 control: 1.0 g per liter), 23 hours
[11] = at the concentrations studied (0.1% + 0.1%)
[12] = additive 0.025% in MRS, 12 hours
[13] = additive 0.025% in MRS, 23 hours

polysorbate 80 [reference compound]
Lactic Acid % ([1]; 12 hours): 1.12% | NTU (Turbidity) ([1]; 12 hours): 2804 NTU | pH ([1]; 12 hours): 4.0 | Lactic Acid % ([1]; 23 hours): 1.67% | NTU (Turbidity) ([1]; 23 hours): 3776 NTU | pH ([1]; 23 hours): 3.7 | Lactic Acid % ([2]; 12 hours): 1.42% | NTU (Turbidity) ([2]; 12 hours): 3426 NTU | pH ([2]; 12 hours): 3.8 | Lactic Acid % ([2]; 23 hours): 1.68% | NTU (Turbidity) ([2]; 23 hours): 3931 NTU | pH ([2]; 23 hours): 3.7 | Lactic Acid % ([3]; 12 hours): 0.99% | NTU (Turbidity) ([3]; 12 hours): 1664 NTU | pH ([3]; 12 hours): 4.2 | Lactic Acid % ([3]; 23 hours): 1.39% | NTU (Turbidity) ([3]; 23 hours): 2824 NTU | pH ([3]; 23 hours): 3.9 | NTU (Turbidity) [4, 7]: 1855 NTU | NTU (Turbidity) [4, 8]: 2038 NTU | Lactic Acid % [4, 9]: 1.09% | pH [4, 9]: 4.2 | Lactic Acid % [4, 10]: 1.27% | pH [4, 10]: 4.1 | Lactic Acid % ([5]; 12 hours): 0.57% | NTU (Turbidity) ([5]; 12 hours): 922 NTU | pH ([5]; 12 hours): 4.8 | Lactic Acid % ([5]; 23 hours): 0.84% | NTU (Turbidity) ([5]; 23 hours): 1434 NTU | pH ([5]; 23 hours): 4.5 | Lactic Acid % ([6]; 12 hours): 1.42% | pH ([6]; 12 hours): 3.9 | Lactic Acid % ([6]; 23 hours): 1.84% | pH ([6]; 23 hours): 3.7 | NTU (Turbidity) ([6]; 12 hours): 3311 NTU | NTU (Turbidity) ([6]; 23 hours): 3694 NTU

CCCCCCCC/C=C\CCCCCCCC(=O)O [Oleic Acid, oleic acid]
lag phase ([1]; 0.1% in MRS, at 12 hours): significant lag phase | effectiveness as polysorbate 80 replacement (conclusion) ([1]; 0.1% inclusion rate in MRS): not as good a replacement for polysorbate 80 as sunflower lecithin | Lactic Acid % ([1]; 12 hours): 0.072% | NTU (Turbidity) ([1]; 12 hours): −30.9 NTU | pH ([1]; 12 hours): 6.2 | Lactic Acid % ([1]; 23 hours): 1.05% | NTU (Turbidity) ([1]; 23 hours): 2644 NTU | pH ([1]; 23 hours): 4.1 | synergy of oleic acid with sunflower lecithin (conclusion) [1, 11]: not synergistic | lag phase ([2]; 0.1% in MRS, at 12 hours): a lag phase is apparent | effectiveness as polysorbate 80 replacement (conclusion) ([2]; 0.1% inclusion rate in MRS): not as good a replacement | Lactic Acid % ([2]; 12 hours): 0.073% | NTU (Turbidity) ([2]; 12 hours): 1440 NTU | pH ([2]; 12 hours): 4.4 | Lactic Acid % ([2]; 23 hours): 1.51% | NTU (Turbidity) ([2]; 23 hours): 3578 NTU | pH ([2]; 23 hours): 3.8 | effectiveness as polysorbate 80 replacement (conclusion) ([3]; 0.1% inclusion rate in MRS): not as effective a replacement for polysorbate 80 as sunflower lecithin | Lactic Acid % ([3]; 12 hours): 0.33% | NTU (Turbidity) ([3]; 12 hours): 178 NTU | pH ([3]; 12 hours): 5.1 | Lactic Acid % ([3]; 23 hours): 1.01% | NTU (Turbidity) ([3]; 23 hours): 1789 NTU | pH ([3]; 23 hours): 4.1 | synergy of oleic acid with sunflower lecithin (conclusion) [3, 11]: does not appear to be synergistic | effectiveness as polysorbate 80 replacement (conclusion) ([4]; 0.1% inclusion rate in MRS): somewhat effective | Lactic Acid % [4, 12]: 0.70% | pH [4, 12]: 4.5 | Lactic Acid % [4, 13]: 0.77% | NTU (Turbidity) [4, 13]: 603 NTU | pH [4, 13]: 4.4 | NTU (Turbidity) [4, 7]: 1451 NTU | NTU (Turbidity) [4, 8]: 1789 NTU | Lactic Acid % [4, 9]: 1.03% | pH [4, 9]: 4.3 | Lactic Acid % [4, 10]: 1.21% | pH [4, 10]: 4.1 | effectiveness as polysorbate 80 replacement (conclusion) ([6]; 0.1% inclusion rate in MRS): acceptable replacement value | Lactic Acid % ([6]; 12 hours): 1.18% | pH ([6]; 12 hours): 4.1 | Lactic Acid % ([6]; 23 hours): 1.72% | pH ([6]; 23 hours): 3.8 | NTU (Turbidity) ([6]; 12 hours): 2775 NTU | NTU (Turbidity) ([6]; 23 hours): 3529 NTU
